The nature of series [1]: Compound solubility in water.
Series [2] has as its target T1, acid ceramidase (Homo sapiens, UniProt Q13510).
T1 construct: Cell lysates overexpressing acid ceramidase were used as the enzyme source; expressed in transfected cells
T1 sequence (Q13510 22-395): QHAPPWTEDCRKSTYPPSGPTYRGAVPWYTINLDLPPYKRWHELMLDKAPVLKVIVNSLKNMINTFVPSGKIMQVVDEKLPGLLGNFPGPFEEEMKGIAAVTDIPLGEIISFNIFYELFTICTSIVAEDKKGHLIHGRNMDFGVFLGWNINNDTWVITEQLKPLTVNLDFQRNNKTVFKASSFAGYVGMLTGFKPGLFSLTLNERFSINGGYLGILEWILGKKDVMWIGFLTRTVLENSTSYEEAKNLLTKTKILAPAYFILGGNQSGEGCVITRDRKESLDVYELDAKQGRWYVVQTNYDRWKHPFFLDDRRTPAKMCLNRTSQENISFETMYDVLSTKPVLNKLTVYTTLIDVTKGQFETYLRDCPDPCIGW
Description: Acid ceramidase inhibition, biochemical fluorescent assay with cell lysates overexpressing acid ceramidase, substrate Rbm14-12. The conditions noted are these: substrate Rbm14-12 6.3 μM. The procedure, abridged: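 IC50 derived by four-parameter fitting of fluorescence (ex360 nm, em446 nm) produced after 1 hr in methanol/NaIO4/glycine stop buffer, pH 10.6. Reaction: 6.3 μM Rbm14-12, 1 hr RT, following 1 hr RT compound preincubation with 10 μg overexpressing-cell lysate protein in pH 4.5 NaAC/NaCl buffer.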

[3] abbreviates: pH 4.5, 1 hr preincubation at RT.

This note sets out measurements from patent US20220380319A1 (Bial - R&D Investments, S.A., priority 2019, published 2022).

Each structure is given as a SMILES string. pIC50: −log10 of the molar value. ≈ marks a conversion by molar mass, not a printed value.

In turn, `CN1CCN(C2CN(c3cccc4c3ncn4C(=O)NCC(C)(C)Oc3ccccc3)C2)CC1` [Example 344, N-(2-Methyl-2-phenoxypropyl)-4-(3-(4-methylpiperazin-1-yl)azetidin-1-yl)-1H-benzo[d]imidazole-1-carboxamide] registered a solubility in series [1] of 29 µg/mL (≈ 62.7 µM). The pIC50 in series [2] (setting [3]) was greater than 6.70.
In turn, `COc1nc2c(N3CCOCC3)cccc2n1C(=O)NCCC(C)C` [Example 146, N-iso-Pentyl-2-methoxy-4-morpholino-1H-benzo[d]imidazole-1-carboxamide] gave a solubility in series [1] of 17 µg/mL (≈ 49.1 µM). Further, in series [2] (setting [3]), the pIC50 was less than 6.00.
In the case of `CC(C)CCNC(=O)n1cnc2c(N3CCCCC3)cccc21` [Example 151, N-iso-Pentyl-4-(piperidin-1-yl)-1H-benzo[d]imidazole-1-carboxamide], the solubility in series [1] amounted to 2 µg/mL (≈ 6.36 µM). The pIC50 in series [2] (setting [3]) was 6.00 to 6.70.
The corresponding values for `O=C(NCCOc1ccccc1)n1cnc2ccc(C(F)(F)F)cc21` [Example 46b, N-(2-phenoxyethyl)-6-(trifluoromethyl)-1H-benzo[d]imidazole-1-carboxamide] are 0.3 µg/mL (≈ 0.859 µM) and greater than 6.70.
On to `O=C(NCCCc1ccccc1)n1cnc2c(N3CCC(F)(F)CC3)cccc21` [Example 248, 4-(4,4-Difluoropiperidin-1-yl)-N-(3-phenylpropyl)-1H-benzo[d]imidazole-1-carboxamide], for which the solubility in series [1] was determined as 1 µg/mL (≈ 2.51 µM). The pIC50 in series [2] (pH 4.5) is greater than 6.70.
On to `CC(C)CCNC(=O)n1cnc2c(N3CC4(COC4)C3)cccc21` [Example 176], for which, in series [1], the solubility was determined as 22 µg/mL (≈ 67 µM). In series [2] (pH 4.5), this compound gave a pIC50 of 6.00 to 6.70.
The compound `O=C(NCCc1ccccc1)n1c(OCCN2CCOCC2)nc2ccccc21` [Example 357, 2-(2-Morpholinoethoxy)-N-phenethyl-1H-benzo[d]imidazole-1-carboxamide] returned a solubility in series [1] of 6 µg/mL (≈ 15.2 µM). In series [2] (setting [3]), this compound showed a pIC50 of 6.00 to 6.70.
In series [1], `CN1CCN(c2cccc3c2ncn3C(=O)NCCCc2ccccc2)CC1` [Example 192, 4-(4-Methylpiperazin-1-yl)-N-(3-phenylpropyl)-1H-benzo[d]imidazole-1-carboxamide] yielded a solubility of 12 µg/mL (≈ 31.8 µM). For the same compound, the negative-log IC50 (pIC50) in series [2] (pH 4.5) is greater than 6.70.
Compound `O=C(NCCc1ccccc1)n1cnc2ccc(N3CCOCC3)cc21` [Example 14b, 6-Morpholino-N-phenethyl-1H-benzo[d]imidazole-1-carboxamide] had a solubility in series [1] of 31.2 µg/mL (≈ 89 µM). In addition, the negative-log IC50 (pIC50) in series [2] (setting [3]) is greater than 6.70.
In turn, `CN1CC2(CCN(c3cccc4c3ncn4C(=O)NCCC#Cc3ccccc3)CC2)C1` [Example 367, 4-(2-Methyl-2,7-diazaspiro[3.5]nonan-7-yl)-N-(4-phenylbut-3-yn-1-yl)-1H-benzo[d]imidazole-1-carboxamide] displayed a solubility in series [1] of 27 µg/mL (≈ 63.2 µM). This compound gave a pIC50 in series [2] (setting [3]) greater than 6.70.
The compound `O=C(NC1CCCCC1)n1cnc2c(N3CCN(C4CC4)CC3)cccc21` [Example 148, N-Cyclohexyl-4-(4-cyclopropylpiperazin-1-yl)-1H-benzo[d]imidazole-1-carboxamide] had a solubility in series [1] of 3 µg/mL (≈ 8.16 µM). The same compound showed a pIC50 in series [2] (setting [3]) of less than 6.00.
Compound `CC(C)Oc1cccc2c1ncn2C(=O)NCCc1ccccc1` [Example 90, 4-iso-Propoxy-N-phenethyl-1H-benzo[d]imidazole-1-carboxamide] had a solubility in series [1] of 0.3 µg/mL (≈ 0.928 µM). In series [2] (setting [3]), the negative-log IC50 (pIC50) was greater than 6.70.
`CC(C)CCNC(=O)n1cnc2c(N3CCN(C)C(CF)C3)cccc21` (stereo not drawn) [Example 201, 4-(3-(Fluoromethyl)-4-methylpiperazin-1-yl)-N-isopentyl-1H-benzo[d]imidazole-1-carboxamide]: the solubility in series [1] came out at 28 µg/mL (≈ 77.5 µM). Further, the pIC50 in series [2] (pH 4.5) is 6.00 to 6.70.
`O=C(NCCc1ccccc1)n1cnc2ccc(N3CCCCC3)cc21` [Example 13b, N-Phenethyl-6-(piperidin-1-yl)-1H-benzo[d]imidazole-1-carboxamide]: the solubility in series [1] amounted to 9.1 µg/mL (≈ 26.1 µM). Further, the pIC50 in series [2] (setting [3]) was greater than 6.70.
Compound `COc1nc2cccnc2n1C(=O)NCCCCn1ccc(C(C)(C)C)n1` [Example 135a, N-(4-(3-(tert-Butyl)-1H-pyrazol-1-yl)butyl)-2-methoxy-3H-imidazo[4,5-b]pyridine-3-carboxamide] displayed a solubility in series [1] of 15 µg/mL (≈ 40.5 µM). In series [2] (setting [3]), this compound showed a pIC50 greater than 6.70.
The corresponding values for `CC(C)CCNC(=O)n1cnc2c(N3CCN(CC(F)(F)F)CC3)cccc21` [Example 153, N-iso-Pentyl-4-(4-(2,2,2-trifluoroethyl)piperazin-1-yl)-1H-benzo[d]imidazole-1-carboxamide] are 10 µg/mL (≈ 25.2 µM) and 6.00 to 6.70.
`COc1nc2cc(N3CCOCC3)ccc2n1C(=O)NCC1(CC2CC2)CC1` [Example 229b, N-((1-(cyclopropylmethyl)cyclopropyl)methyl)-2-methoxy-5-morpholino-1H-benzo[d]imidazole-1-carboxamide] came in with a solubility in series [1] of 9 µg/mL (≈ 23.4 µM). The compound also had a pIC50 in series [2] (pH 4.5) greater than 6.70.
In series [1], `CC(C)CCNC(=O)n1cnc2c(N3CCN(C4CC4)C(=O)C3)cccc21` [Example 206, 4-(4-Cyclopropyl-3-oxopiperazin-1-yl)-N-isopentyl-1H-benzo[d]imidazole-1-carboxamide] had a solubility of 20 µg/mL (≈ 54.1 µM). In series [2] (pH 4.5), this compound gave a pIC50 of 6.00 to 6.70.
`O=C(NCCc1ccccc1)n1cnc2cc(N3CCCCC3)ccc21` [Example 13a, N-Phenethyl-5-(piperidin-1-yl)-1H-benzo[d]imidazole-1-carboxamide]: the concentration in solution in series [1] (solubility) came to 2.6 µg/mL (≈ 7.46 µM). This compound also had a pIC50 in series [2] (setting [3]) greater than 6.70.
Turning to `CC(C)CCNC(=O)n1cnc2c(N3CCN(C)C(=O)C3)cccc21` [Example 163, N-iso-Pentyl-4-(4-methyl-3-oxopiperazin-1-yl)-1H-benzo[d]imidazole-1-carboxamide], the solubility in series [1] was determined as 14 µg/mL (≈ 40.8 µM). The pIC50 in series [2] (pH 4.5) was 6.00 to 6.70.
For `CN1C[C@@H]2C[C@H]1CN2c1cccc2c1ncn2C(=O)NCCCc1ccccc1` [Example 244, 4-((1S,4S)-5-Methyl-2,5-diazabicyclo[2.2.1]heptan-2-yl)-N-(3-phenylpropyl)-1H-benzo[d]imidazole-1-carboxamide] the same measures were 30 µg/mL (≈ 77 µM) and greater than 6.70.
As for `N#Cc1cccc2c1ncn2C(=O)NCCCCc1ccccc1` [Example 130, 4-Cyano-N-(4-phenylbutyl)-1H-benzo[d]imidazole-1-carboxamide], in series [1], the concentration in solution (solubility) was 1.3 µg/mL (≈ 4.08 µM). This compound had a pIC50 in series [2] (setting [3]) greater than 6.70.
For `COc1nc2cc(-c3cccnc3)cnc2n1C(=O)NCCCCc1ccccc1` [Example 122, 2-Methoxy-N-(4-phenylbutyl)-6-(pyridin-3-yl)-3H-imidazo[4,5-b]pyridine-3-carboxamide], in series [1], the solubility came out at 0.04 µg/mL (≈ 0.0996 µM). In series [2] (setting [3]), this compound gave a pIC50 greater than 6.70.
`CC(C)C#CCNC(=O)n1cnc2c(N3CCC4CN(C)CC4CC3)cccc21` (stereo not drawn) [Example 312, 4-(2-Methyloctahydropyrrolo[3,4-d]azepin-6(1H)-yl)-N-(4-methylpent-2-yn-1-yl)-1H-benzo[d]imidazole-1-carboxamide] registered a solubility in series [1] of 24 µg/mL (≈ 61 µM). In series [2] (pH 4.5), this compound had a pIC50 greater than 6.70.
`[2H]c1nc2ccccc2n1C(=O)NCCc1ccccc1` [Example 128, N-Phenethyl-1H-benzo[d]imidazole-2-d-1-carboxamide] registered a solubility in series [1] of 15 µg/mL (≈ 56.3 µM). Moreover, the pIC50 in series [2] (setting [3]) is greater than 6.70.
In series [1], `CCOc1nc2cccnc2n1C(=O)NCCCc1ccccc1` [Example 91b, 2-ethoxy-N-(3-phenylpropyl)-3H-imidazo[4,5-b]pyridine-3-carboxamide] came in with a solubility of 21.1 µg/mL (≈ 65 µM). For the same compound, the pIC50 in series [2] (setting [3]) was greater than 6.70.
The corresponding values for `O=C(NCc1ccccc1)n1cnc2ccccc21` [Example 17, N-Benzyl-1H-benzo[d]imidazole-1-carboxamide] are 1.9 µg/mL (≈ 7.56 µM) and greater than 6.70.
For the compound `CCN1CCC(c2cccc3c2ncn3C(=O)NCCCc2ccccc2)C1` (stereo not drawn) [Example 261, 4-(1-Ethylpyrrolidin-3-yl)-N-(3-phenylpropyl)-1H-benzo[d]imidazole-1-carboxamide], the concentration in solution in series [1] (solubility) was 26 µg/mL (≈ 69.1 µM). This compound showed a pIC50 in series [2] (pH 4.5) greater than 6.70.
On to `O=C(NCCc1ccccc1)n1cnc2ccccc21` [Example 1, N-Phenethyl-1H-benzo[d]imidazole-1-carboxamide], for which the solubility in series [1] was 8 µg/mL (≈ 30.2 µM). Besides, the pIC50 in series [2] (setting [3]) was greater than 6.70.
In series [1], `CCC(C)NC(=O)n1c(OC)nc2cc(-c3cncnc3)ccc21` (stereo not drawn) [Example 109b, N-(sec-butyl)-2-methoxy-5-(pyrimidin-5-yl)-1H-benzo[d]imidazole-1-carboxamide] displayed a solubility of 32.4 µg/mL (≈ 99.6 µM). In addition, the pIC50 in series [2] (setting [3]) is less than 6.00.
For the compound `COc1nc2cc(N3CCOCC3)ccc2n1C(=O)NCCCCc1ccccc1` [Example 133b, 2-methoxy-5-morpholino-N-(4-phenylbutyl)-1H-benzo[d]imidazole-1-carboxamide], the solubility in series [1] was 2 µg/mL (≈ 4.9 µM). The compound further had a pIC50 in series [2] (setting [3]) greater than 6.70.
With `CN1CC(N2CCN(c3cccc4c3ncn4C(=O)NCCCc3ccccc3)CC2)C1` [Example 251, 4-(4-(1-Methylazetidin-3-yl)piperazin-1-yl)-N-(3-phenylpropyl)-1H-benzo[d]imidazole-1-carboxamide], the solubility in series [1] is 35 µg/mL (≈ 80.9 µM). Besides, in series [2] (pH 4.5), the pIC50 was greater than 6.70.
In series [1], `COc1cccc2c1ncn2C(=O)NCCC1CC1` [Example 121, N-(2-Cyclopropylethyl)-4-methoxy-1H-benzo[d]imidazole-1-carboxamide] yielded a solubility of 22.6 µg/mL (≈ 87.2 µM). In series [2] (setting [3]), this compound gave a negative logarithm of the IC50 (pIC50) of 6.00 to 6.70.

In general, solubility refers to how much of the substance goes into solution per volume. Low values mean a poorly soluble substance, high ones a readily soluble substance. For orientation: pIC50 means the IC50 on a negative log10 scale, so that one unit is a factor of ten.
